The values below come from US9296759B2, “Amino-oxazine and amino-dihydrothiazine compounds as beta-secretase modulators and methods of use” (AMGEN INC., priority 2011, dated 2016).

Each structure is given as a SMILES string. Where two headings read alike, the source gives them in different places.

Experiment [1] concerns the target Cathepsin D (Homo sapiens (Human), UniProt P07339). The experiment can be described thus: In vitro enzymatic Cat D (Cathepsin D) FRET assay. As to conditions: average IC50. Format: biochemical. In outline:
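CHO-expressed recombinant enzyme in 0.05 M citrate pH 3.5, 5 mM CHAPS, 10% DMSO final; reaction started with 20 nM quenched-peptide FRET substrate (cleavage site spanned by fluorophore/quencher), 1 h incubation.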

The target of experiment [2] is BACE 1 (beta secretase enzyme) (Homo sapiens (Human), UniProt P56817). Kind of experiment: In vitro enzymatic BACE FRET assay. Format: biochemical. The conditions noted are these: average IC50. In outline:
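The enzyme was tested in 0.05 M acetate, pH 4.2, with 10% DMSO final and 100 uM genapol. The reaction was started with 50 nM quenched FRET peptide substrate, incubated one hour and stopped with Tris to neutral pH. Cleavage was read as fluorescence ([…]).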

The subject of experiment [3] is Abeta 40. Kind of experiment: In vivo inhibition of beta-secretase: Abeta 40 reduction in CSF and brain of the rat. As to conditions: 10 mpk, after 4 hrs. The source says:
In Vivo Inhibition of Beta-Secretase
Several animal models, including mouse, rat, dog, and monkey, may be used to screen for inhibition of beta-secretase activity in vivo following administration of a test compound sample. Animals used in this invention can be wild type, transgenic, or gene knockout animals. For example, the Tg2576 mouse model, prepared and conducted as described in Hsiao et al., 1996, Science 274, 99-102, and other non-transgenic or gene knockout animals are useful to analyze in vivo inhibition of Amyloid beta peptide (Abeta) production in the presence of inhibitory test compounds. Generally, 2 to 18 month old Tg2576 mice, gene knockout mice or non-transgenic animals are administered test compounds formulated in vehicles, such as cyclodextran, phosphate buffers, hydroxypropyl methylcellulose or other suitable vehicles. One to twenty-four hours following the administration of compound, animals are sacrificed, and brains as well as cerebrospinal fluid (CSF) and plasma are removed for analysis of A-beta levels and drug or test compound concentrations (Dovey et al., 2001, Journal of Neurochemistry, 76, 173-181) Beginning at time 0, animals are administered by oral gavage, or other means of delivery such as intravenous injection, an inhibitory test compound of up to 100 mg/kg in a standard, conventional formulation, such as 2% hydroxypropyl methylcellulose, 1% Tween80. A separate group of animals receive 2% hydroxypropyl methylcellulose, 1% Tween80 alone, containing no test compound, and serve as a vehicle-control group. At the end of the test period, animals are sacrificed and brain tissues, plasma or cerebrospinal fluid are collected. Brains are either homogenized in 10 volumes (w/v) of 0.2% diethylamine (DEA) in 50 mM NaCl (Best et al., 2005, Journal of Pharmacology and Experimental Therapeutics, 313, 902-908), or in 10 volumes of 0.5% TritonX-100 in Tris-buffered saline (pH at about 7.6). Homogenates are centrifuged at 355,000 g, 4° C. for 30 minutes. CSF or brain supernatants are then analyzed for the presence of A-beta peptide by specific sandwich ELISA assays based on ECL (Electrochemiluminescence) technology. For example, rat Abeta40 is measured using biotinylated-4G8 (Signet) as a capture antibody and Fab40 (an in-house antibody specific to the C-terminal of Abeta40) as a detection antibody. For example, 4 hours after administration of 30 mg/kg oral dose of the test compound in 2% hydroxypropyl methylcellulose, 1% Tween80 (pH2.2) to 200 g male Sprague Dawley rats, amyloid beta peptide levels are measured for reduction by X % and Y % in cerebrospinal fluid and brain, respectively, when compared to the levels measured in the vehicle-treated rats.
• Oral: 2% HPMC, 1% Tween80, pH 2.2 • IV: 5% EtOH, 45% Propylene glycol in 5% Dextrose
The compounds of the invention may be shown to reduce the formation and/or deposition of amyloid beta peptide in the cerebrospinal fluid (CSF) as well as in the brain of a mouse or rat at either 3 mpk, 10 mpk or 30 mpk (mpk=mg compound per kg weight of the animal) dosing concentrations after 4 hrs.

Experiment [4] relates to Aβ40 in conditioned medium of cells stably expressing Amyloid Precursor Protein (APP). The experiment can be described thus: In vitro BACE cell-based assay (HEK cell assay, Aβ40 sandwich ELISA). The conditions noted are these: Homo sapiens, HEK293; average IC50, Aβ40, 24 h incubation. In outline:
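Aβ40 in supernatants was measured by time-resolved fluorescence sandwich ELISA using pAb40 capture and biotinylated 6E10 detection, with antibody incubations at 4 °C. Stable APP cells were exposed to compounds for 24 h in a 10-point series (top dose 100 or 10 µM, 0.1% DMSO). IC50 was fitted from the concentration-response.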
(In an ELISA, binding on a coated surface is turned into a signal by an enzyme label.)

Where [5] appears, read: Abeta 40, rat CSF, read-out: % reduction of rat CSF levels at 10 pmk.
[6] abbreviates: Abeta 40, rat brain, read-out: % reduction of rat brain levels at 10 mpk.

BACE 1 (beta secretase enzyme), sequence (P56817 46-501): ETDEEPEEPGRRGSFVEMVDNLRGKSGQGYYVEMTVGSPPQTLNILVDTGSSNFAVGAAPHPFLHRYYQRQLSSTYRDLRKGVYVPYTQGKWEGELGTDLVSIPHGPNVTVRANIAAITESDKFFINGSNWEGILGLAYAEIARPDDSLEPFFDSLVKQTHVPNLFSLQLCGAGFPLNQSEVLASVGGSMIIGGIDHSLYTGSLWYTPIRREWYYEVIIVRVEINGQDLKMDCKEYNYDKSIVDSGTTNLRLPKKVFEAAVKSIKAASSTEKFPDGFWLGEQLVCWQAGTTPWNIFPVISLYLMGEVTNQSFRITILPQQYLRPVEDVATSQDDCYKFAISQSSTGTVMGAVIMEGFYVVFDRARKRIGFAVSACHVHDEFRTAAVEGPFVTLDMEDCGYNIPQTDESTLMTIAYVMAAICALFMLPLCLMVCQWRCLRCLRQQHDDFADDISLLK
Cathepsin D, sequence (P07339 65-412, species assumed): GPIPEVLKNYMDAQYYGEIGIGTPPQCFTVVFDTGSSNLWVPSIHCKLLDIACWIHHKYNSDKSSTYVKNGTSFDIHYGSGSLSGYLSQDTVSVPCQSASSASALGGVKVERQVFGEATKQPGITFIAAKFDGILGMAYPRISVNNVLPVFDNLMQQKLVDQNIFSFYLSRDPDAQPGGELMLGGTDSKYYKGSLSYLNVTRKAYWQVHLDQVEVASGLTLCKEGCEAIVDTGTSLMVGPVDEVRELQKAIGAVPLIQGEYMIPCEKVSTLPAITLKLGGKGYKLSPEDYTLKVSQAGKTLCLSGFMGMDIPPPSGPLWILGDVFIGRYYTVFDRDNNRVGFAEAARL

Turning to `NC1=N[C@@]2(CCO1)c1cc(NC(=O)c3ccc(Cl)cn3)ccc1Oc1ncc(Br)cc12` [Example 34, N-((5S)-2′-amino-3-bromo-5′,6′-dihydrospiro[chromeno[2,3-b]pyridine-5,4′-[1,3]oxazin]-7-yl)-5-chloro-2-pyridinecarboxamide], the values for the half-maximal inhibitory concentration (IC50) in experiment [1], in experiment [2] and in experiment [4] were 245000 nM, 13.6 nM and 7 nM, respectively. Further, the inhibition in vivo at 10 mg/kg in experiment [3] (setting [5]) came to 64%; in experiment [3] (setting [6]), 17%.
The like results for `NC1=N[C@@]2(CCO1)c1cc(NC(=O)c3ccc(Cl)cn3)ccc1Oc1c2cc(C2=CCCOC2)nc1F` [Example 39, N-((5S)-2′-amino-3-(5,6-dihydro-2H-pyran-3-yl)-1-fluoro-5′,6′-dihydrospiro[chromeno[2,3-c]pyridine-5,4′-[1,3]oxazin]-7-yl)-5-chloro-2-pyridinecarboxamide] were, in that order, above 400000 nM, 2 nM, 0.5 nM, 85% and 80%.
In the case of `COc1cnc(C(=O)Nc2ccc3c(c2)[C@@]2(CCOC(N)=N2)c2cc(C4=CCCOC4)nc(F)c2O3)cn1` [Example 51, N-((5S)-2′-amino-3-(5,6-dihydro-2H-pyran-3-yl)-1-fluoro-5′,6′-dihydrospiro[chromeno[2,3-c]pyridine-5,4′-[1,3]oxazin]-7-yl)-5-methoxy-2-pyrazinecarboxamide], the concentration for half-maximal inhibition (IC50) was above 400000 nM in experiment [1], 2.7 nM in experiment [2] and 4.2 nM in experiment [4]. Also, the inhibition in vivo at 10 mg/kg in experiment [3] (setting [5]) was 85%; in experiment [3] (setting [6]) it was 76%.
The like results for `COc1cnc(C(=O)Nc2ccc3c(c2)[C@@]2(CCOC(N)=N2)c2cc(C4CC4)nc(F)c2O3)cn1` [Example 54, N-((5S)-2′-amino-3-cyclopropyl-1-fluoro-5′,6′-dihydrospiro[chromeno[2,3-c]pyridine-5,4′-[1,3]oxazin]-7-yl)-5-methoxy-2-pyrazinecarboxamide] were, in that order, 269000 nM, 5 nM, 9.6 nM, 77% and 65%.
As to `NC1=N[C@@]2(CCO1)c1cc(NC(=O)c3ccc(Cl)cn3)ccc1Oc1cnc(C3=CCCOC3)cc12` [Example 59, N-((5S)-2′-amino-3-(5,6-dihydro-2H-pyran-3-yl)-5′,6′-dihydrospiro[chromeno[2,3-c]pyridine-5,4′-[1,3]oxazin]-7-yl)-5-chloro-2-pyridinecarboxamide], the half-maximal inhibitory concentration (IC50) in experiment [1] was determined as 400000 nM; in experiment [2] it was 3 nM; in experiment [4] it was 0.5 nM. The inhibition in vivo at 10 mg/kg came to 57% in experiment [3] (setting [5]) and 50% in experiment [3] (setting [6]).
Taken in the same sequence, the figures for `NC1=N[C@@]2(CCO1)c1cc(NC(=O)c3ccc(Cl)cn3)ccc1Oc1c2cc(C2=CCOCC2)nc1F` [Example 63, N-((5S)-2′-amino-3-(3,6-dihydro-2H-pyran-4-yl)-1-fluoro-5′,6′-dihydrospiro[chromeno[2,3-c]pyridine-5,4′-[1,3]oxazin]-7-yl)-5-chloro-2-pyridinecarboxamide] were 400000 nM, 1.4 nM, 0.1 nM, 80% and 75%.
For `COc1cnc(C(=O)Nc2ccc3c(c2)[C@@]2(CCOC(N)=N2)c2cc(C4=CCOCC4)nc(F)c2O3)cn1` [Example 65, N-((5S)-2′-amino-3-(3,6-dihydro-2H-pyran-4-yl)-1-fluoro-5′,6′-dihydrospiro[chromeno[2,3-c]pyridine-5,4′-[1,3]oxazin]-7-yl)-5-methoxy-2-pyrazinecarboxamide], the IC50 worked out at 400000 nM in experiment [1], 0.9 nM in experiment [2] and 0.051 nM in experiment [4]. Further, the inhibition in vivo at 10 mg/kg in experiment [3] (setting [5]) worked out at 83%; in experiment [3] (setting [6]) it was 71%.
With `COc1cnc(C(=O)Nc2ccc3c(c2)[C@@]2(CCSC(N)=N2)c2cc(C4=CCCOC4)nc(F)c2O3)cn1` [Example 66, N-((5S)-2′-amino-3-(5,6-dihydro-2H-pyran-3-yl)-1-fluoro-5′,6′-dihydrospiro[chromeno[2,3-c]pyridine-5,4′-[1,3]thiazin]-7-yl)-5-methoxy-2-pyrazinecarboxamide], the IC50 amounted to 179000 nM in experiment [1], 1.8 nM in experiment [2] and 1 nM in experiment [4]. In addition, the inhibition in vivo at 10 mg/kg is 77% in experiment [3] (setting [5]) and 66% in experiment [3] (setting [6]).
Taken in the same sequence, the figures for `COc1cnc(C(=O)Nc2ccc3c(c2)[C@@]2(CCSC(N)=N2)c2cc(C4=CCOCC4)nc(F)c2O3)cn1` [Example 67, N-((5S)-2′-amino-3-(3,6-dihydro-2H-pyran-4-yl)-1-fluoro-5′,6′-dihydrospiro[chromeno[2,3-c]pyridine-5,4′-[1,3]thiazin]-7-yl)-5-methoxy-2-pyrazinecarboxamide] were 160000 nM, 1.6 nM, 1.4 nM, 66% and 58%.
Taken in the same sequence, the figures for `NC1=N[C@@]2(CCS1)c1cc(NC(=O)c3ccc(Cl)cn3)ccc1Oc1c2cc(C2=CCCOC2)nc1F` [Example 68, N-((5S)-2′-amino-3-(5,6-dihydro-2H-pyran-3-yl)-1-fluoro-5′,6′-dihydrospiro[chromeno[2,3-c]pyridine-5,4′-[1,3]thiazin]-7-yl)-5-chloro-2-pyridinecarboxamide] were 217000 nM, 0.8 nM, 0.5 nM, 77% and 73%.
In the case of `COc1cnc(C(=O)Nc2ccc3c(c2)[C@@]2(CCOC(N)=N2)c2cc(-c4cncc(F)c4)nc(F)c2O3)cn1` [Example 70, N-((5S)-2′-amino-1-fluoro-3-(5-fluoro-3-pyridinyl)-5′,6′-dihydrospiro[chromeno[2,3-c]pyridine-5,4′-[1,3]oxazin]-7-yl)-5-methoxy-2-pyrazinecarboxamide], the IC50 in experiment [1] came to 400000 nM; in experiment [2], 1.3 nM; in experiment [4] it was 0.6 nM. The inhibition in vivo at 10 mg/kg was determined as 70% in experiment [3] (setting [5]) and 59% in experiment [3] (setting [6]).
The like results for `NC1=N[C@@]2(CCO1)c1cc(NC(=O)c3ccc(Cl)cn3)ccc1Oc1c2cc(-c2cncc(F)c2)nc1F` [Example 71, N-((5S)-2′-amino-1-fluoro-3-(5-fluoro-3-pyridinyl)-5′,6′-dihydrospiro[chromeno[2,3-c]pyridine-5,4′-[1,3]oxazin]-7-yl)-5-chloro-2-pyridinecarboxamide] were, in that order, 400000 nM, 0.6 nM, 0.3 nM, 79% and 70%.
For the molecule `NC1=N[C@@]2(CCS1)c1cc(NC(=O)c3ccc(F)cn3)ccc1Oc1c2cc(C2=CCOCC2)nc1F` [Example 116, N-((5S)-2′-amino-3-(3,6-dihydro-2H-pyran-4-yl)-1-fluoro-5′,6′-dihydrospiro[chromeno[2,3-c]pyridine-5,4′-[1,3]thiazin]-7-yl)-5-fluoro-2-pyridinecarboxamide], the IC50 in experiment [2] was 1 nM; in experiment [4] it was 0.6 nM. The inhibition in vivo at 10 mg/kg in experiment [3] (setting [5]) came out at 73%; in experiment [3] (setting [6]), 56%.

What is called IC50 is the concentration that inhibits the measured activity by half.
